This is an account of results in patent US20230131966A1, “FUNGICIDAL AMIDES” (FMC Corporation, priority 2020, published 2023).

Each structure is given as a SMILES string.

What all share (type): in vivo
Assay [1] has as its system Phakopsora pachyrhizi. Description: Test A: Asian soybean rust control on soybean seedlings. The settings on record: soybean seedlings, 100 = 100% disease control, 0 = no control.
In assay [2] the test system is Puccinia recondita f. sp. tritici. The experiment in a line: Test B: wheat leaf rust control on wheat seedlings. The settings on record: wheat seedlings, 100 = 100% disease control, 0 = no control.
For assay [3], the system named is Plasmopara viticola. The experiment in a line: Test D: grape downy mildew control on grape seedlings. The following applies: 250 ppm, 100 = 100% disease control, 0 = no control.
In assay [4] the test system is Botrytis cinerea. The experiment in a line: Test E: tomato Botrytis control on tomato seedlings. The following applies: 250 ppm, 100 = 100% disease control, 0 = no control.
Assay [5] deals with Phytophthora infestans. Description: whole plant or invertebrate. The settings on record: tomato seedlings, 100 = 100% disease control, 0 = no control; for Test F disease control rating: 250 ppm.
Assay [6] relates to Erysiphe graminis f. sp. tritici. Description: Test G: wheat powdery mildew control on wheat seedlings. The settings on record: 250 ppm, 100 = 100% disease control, 0 = no control.
Assay [7] deals with Zymoseptoria tritici. The experiment in a line: Test C: wheat leaf blotch control on wheat seedlings. The following applies: 250 ppm, wheat seedlings, 100 = 100% disease control, 0 = no control.

As to `COc1ccnc(C(=O)NC(C)C(=O)OC(C)c2ccc(F)cc2Cc2ccc(F)cc2)c1O` (mixture of isomers) [Compound 42], in assay [1] (250 ppm), the “Test A disease control rating” value was 100%. Also, the “Test B disease control rating” value in assay [2] (250 ppm) came out at 100%. Also, the “Test D disease control rating” value in assay [3] is listed as 66%. Further, in assay [4], the “Test E disease control rating” value is reported as 0%. Further, the “Test F disease control rating” value in assay [5] was found to be 0%. Further, the “Test G disease control rating” value in assay [6] is on record as 0%.
On to `CCOC(=O)c1cnn(-c2ccc(C(C)OC(=O)C(C)NC(=O)c3nccc(OC)c3O)cc2)c1` (mixture of isomers) [Compound 50], for which, in assay [2] (250 ppm), the “Test B disease control rating” value was determined as 68%. The “Test C disease control rating” value in assay [7] came out at 54%.
As for `COc1ccnc(C(=O)NC(C)C(=O)OC(C)c2ccccc2Oc2ccc(F)cc2)c1O` (mixture of isomers) [Compound 55], the “Test A disease control rating” value in assay [1] (250 ppm) was 100%. Besides, the “Test B disease control rating” value in assay [2] (250 ppm) stood at 98%. Moreover, the “Test D disease control rating” value in assay [3] was determined as 52%. The “Test E disease control rating” value in assay [4] was determined as 0%. Also, in assay [5], the “Test F disease control rating” value is 0%. The “Test G disease control rating” value in assay [6] turned out to be 13%.
In the case of `COc1ccnc(C(=O)NC(C)C(=O)OC(C)c2ccc(C3CCCC3)cc2)c1O` (mixture of isomers) [Compound 65], the “Test A disease control rating” value in assay [1] (50 ppm) turned out to be 100%. Moreover, the “Test B disease control rating” value in assay [2] (50 ppm) is on record as 98%.
Regarding `COc1ccnc(C(=O)NC(C)C(=O)OC(C)c2ccc(C3CC3)cc2)c1OC(C)=O` (mixture of isomers) [Compound 71], in assay [1] (50 ppm), the “Test A disease control rating” value worked out at 89%.
Regarding `COc1ccnc(C(=O)NC(C)C(=O)OC(C)C23CC4CC(CC(C4)C2)C3)c1O` (racemic) [Compound 44], the pest or weed control at 50 ppm in assay [1] (Phakopsora pachyrhizi, 50 ppm, read-out: Test A disease control rating) turned out to be 75%; in assay [2] (Puccinia recondita, 50 ppm, read-out: Test B disease control rating), 55%.
As to `COc1ccnc(C(=O)NC(C)C(=O)OC(C)c2ccc3ccccc3c2)c1O` (racemic) [Compound 76], the pest or weed control at 250 ppm in assay [1] (Phakopsora pachyrhizi, 250 ppm, read-out: Test A disease control rating) is 100%; in assay [2] (Puccinia recondita, 250 ppm, read-out: Test B disease control rating) it was 100%; in assay [7] (Zymoseptoria tritici, read-out: Test C disease control rating), 99%; in assay [4] (Botrytis cinerea, read-out: Test E disease control rating), 0%; in assay [5] (Phytophthora infestans, in Solanum lycopersicum, read-out: Test F disease control rating, 250 ppm) it was 0%.
Take `COc1ccnc(C(=O)N[C@@H](C)C(=O)OC(C)c2ccc(F)cc2Cc2ccc(F)cc2)c1O` (single isomer, unassigned) [Compound 41]: the “Test A disease control rating” value in assay [1] (250 ppm) came to 100%. The “Test B disease control rating” value in assay [2] (250 ppm) stood at 100%. Moreover, in assay [3], the “Test D disease control rating” value is 70%. Further, the “Test E disease control rating” value in assay [4] came out at 0%. Further, the “Test F disease control rating” value in assay [5] is listed as 24%. Moreover, the “Test G disease control rating” value in assay [6] is listed as 0%.
Take `COc1ccnc(C(=O)N[C@@H](C)C(=O)OC(C)C2CCCCC2)c1O` (single isomer, unassigned) [Compound 51]: the “Test A disease control rating” value in assay [1] (50 ppm) is listed as 100%. Also, the “Test B disease control rating” value in assay [2] (50 ppm) is given as 100%.
Turning to `COc1ccnc(C(=O)N[C@@H](C)C(=O)OC(C)C2CCCCC2)c1O` (single isomer, unassigned) [Compound 52], in assay [1] (50 ppm), the “Test A disease control rating” value is recorded as 32%. The “Test B disease control rating” value in assay [2] (50 ppm) turned out to be 9%.
Turning to `COc1ccnc(C(=O)N[C@@H](C)C(=O)OC(C)c2ccc(F)cc2Cc2ccc(F)cc2)c1O` (single isomer, unassigned) [Compound 54], the “Test A disease control rating” value in assay [1] (250 ppm) is listed as 79%. In addition, the “Test B disease control rating” value in assay [2] (250 ppm) was found to be 68%. Further, in assay [3], the “Test D disease control rating” value came to 55%. For the same molecule, the “Test E disease control rating” value in assay [4] is 0%. In addition, the “Test F disease control rating” value in assay [5] is recorded as 0%. Moreover, the “Test G disease control rating” value in assay [6] is on record as 0%.
Consider `COc1ccnc(C(=O)N[C@@H](C)C(=O)OC(C)c2ccccc2Oc2ccc(F)cc2)c1O` (single isomer, unassigned) [Compound 59], for which the “Test A disease control rating” value in assay [1] (250 ppm) is 100%. The “Test B disease control rating” value in assay [2] (250 ppm) is recorded as 100%. Further, the “Test D disease control rating” value in assay [3] is 66%. In addition, in assay [4], the “Test E disease control rating” value is listed as 0%. Further, in assay [5], the “Test F disease control rating” value came out at 0%. In addition, the “Test G disease control rating” value in assay [6] was determined as 13%.
`COc1ccnc(C(=O)N[C@@H](C)C(=O)OC(C)c2ccc(C3CCCCC3)cc2)c1O` (single isomer, unassigned) [Compound 73]: the “Test A disease control rating” value in assay [1] (50 ppm) is reported as 0%. Besides, in assay [2] (50 ppm), the “Test B disease control rating” value is recorded as 41%.
The matching figures for `COc1ccnc(C(=O)N[C@@H](C)C(=O)OC(C)c2ccc(C3CCCCC3)cc2)c1O` (single isomer, unassigned) [Compound 74]: 100% and 99%.
Regarding `COc1ccnc(C(=O)N[C@@H](C)C(=O)OC(C)c2ccccc2Oc2ccccc2)c1O` (single isomer, unassigned) [Compound 105], the “Test A disease control rating” value in assay [1] (250 ppm) is reported as 98%. The “Test B disease control rating” value in assay [2] (250 ppm) is given as 28%. Besides, in assay [7], the “Test C disease control rating” value amounted to 67%. For the same molecule, in assay [4], the “Test E disease control rating” value was determined as 0%. Further, the “Test F disease control rating” value in assay [5] stood at 0%. Besides, the “Test G disease control rating” value in assay [6] is recorded as 0%.
For the molecule `COc1ccnc(C(=O)N[C@@H](C)C(=O)OC(C)c2ccccc2Oc2ccccc2)c1O` (single isomer, unassigned) [Compound 106], the “Test A disease control rating” value in assay [1] (250 ppm) was found to be 100%. The “Test B disease control rating” value in assay [2] (250 ppm) came to 92%. For the same molecule, in assay [7], the “Test C disease control rating” value was 90%. In assay [4], the “Test E disease control rating” value worked out at 16%. For the same molecule, the “Test F disease control rating” value in assay [5] is recorded as 0%. Moreover, the “Test G disease control rating” value in assay [6] was determined as 0%.
For the molecule `COc1ccnc(C(=O)N[C@@H](C)C(=O)OC(C)c2ccccc2Oc2ccccc2)c1OC(C)=O` (single isomer, unassigned) [Compound 107], in assay [1] (250 ppm), the “Test A disease control rating” value is 100%. The “Test B disease control rating” value in assay [2] (250 ppm) stood at 98%. Moreover, in assay [7], the “Test C disease control rating” value amounted to 87%. In addition, the “Test E disease control rating” value in assay [4] worked out at 0%. Besides, the “Test F disease control rating” value in assay [5] was determined as 0%. The “Test G disease control rating” value in assay [6] is 0%.
In the case of `COc1ccnc(C(=O)N[C@@H](C)C(=O)OC(C)c2ccccc2Oc2ccccc2)c1OC(C)=O` (single isomer, unassigned) [Compound 108], the “Test A disease control rating” value in assay [1] (250 ppm) came out at 43%. The “Test B disease control rating” value in assay [2] (250 ppm) worked out at 32%. Besides, in assay [7], the “Test C disease control rating” value was 75%. Besides, the “Test E disease control rating” value in assay [4] came out at 0%. Also, the “Test F disease control rating” value in assay [5] is reported as 0%. Besides, the “Test G disease control rating” value in assay [6] stood at 0%.
As to `COc1ccnc(C(=O)N[C@@H](C)C(=O)OC(C)c2ccccc2Cc2ccccc2)c1O` (single isomer, unassigned) [Compound 109], the “Test A disease control rating” value in assay [1] (250 ppm) amounted to 100%. Moreover, the “Test B disease control rating” value in assay [2] (250 ppm) was 98%. For the same molecule, the “Test C disease control rating” value in assay [7] came to 85%. Further, the “Test E disease control rating” value in assay [4] was 98%. Further, the “Test F disease control rating” value in assay [5] was found to be 0%. The “Test G disease control rating” value in assay [6] is 0%.
For `COc1ccnc(C(=O)N[C@@H](C)C(=O)OC(C)c2ccccc2Cc2ccccc2)c1OC(C)=O` (single isomer, unassigned) [Compound 110], in assay [1] (250 ppm), the “Test A disease control rating” value is 100%. The “Test B disease control rating” value in assay [2] (250 ppm) is 99%. Besides, the “Test C disease control rating” value in assay [7] came to 92%. Moreover, the “Test E disease control rating” value in assay [4] came out at 0%. Also, in assay [5], the “Test F disease control rating” value came to 0%. Besides, the “Test G disease control rating” value in assay [6] is reported as 0%.
For `COc1ccnc(C(=O)N[C@@H](C)C(=O)OC(C)c2ccccc2Cc2ccccc2)c1O` (single isomer, unassigned) [Compound 111], the “Test A disease control rating” value in assay [1] (250 ppm) stood at 97%. Moreover, the “Test B disease control rating” value in assay [2] (250 ppm) worked out at 9%. The “Test C disease control rating” value in assay [7] came to 56%. The “Test E disease control rating” value in assay [4] was found to be 16%. The “Test F disease control rating” value in assay [5] is recorded as 0%. Moreover, in assay [6], the “Test G disease control rating” value came out at 0%.
With `COc1ccnc(C(=O)N[C@@H](C)C(=O)OC(C)c2ccccc2Cc2ccccc2)c1OC(C)=O` (single isomer, unassigned) [Compound 112], the “Test A disease control rating” value in assay [1] (250 ppm) stood at 0%. Also, in assay [2] (250 ppm), the “Test B disease control rating” value is listed as 55%. Besides, the “Test C disease control rating” value in assay [7] was 83%. For the same molecule, the “Test E disease control rating” value in assay [4] was found to be 0%. For the same molecule, in assay [5], the “Test F disease control rating” value is given as 0%. For the same molecule, the “Test G disease control rating” value in assay [6] amounted to 0%.
Take `COc1ccnc(C(=O)N[C@@H](C)C(=O)OC(C)c2cccc3ccccc23)c1OC(C)=O` (single isomer, unassigned) [Compound 115]: in assay [1] (250 ppm), the “Test A disease control rating” value is 89%. Moreover, the “Test B disease control rating” value in assay [2] (250 ppm) was determined as 55%. Also, the “Test C disease control rating” value in assay [7] is recorded as 86%. Besides, in assay [4], the “Test E disease control rating” value turned out to be 0%. Also, in assay [5], the “Test F disease control rating” value is on record as 0%. Further, the “Test G disease control rating” value in assay [6] turned out to be 0%.
On to `COc1ccnc(C(=O)N[C@@H](C)C(=O)OC(c2ccc(C3CCCCC3)cc2)C(C)C)c1OC(C)=O` (stereo partly shown) [Compound 96], for which the “Test A disease control rating” value in assay [1] (50 ppm) was determined as 94%. Moreover, the “Test B disease control rating” value in assay [2] (50 ppm) worked out at 95%.
